Experimental data published in US20230133672A1, “FUSION POLYPEPTIDE COMPRISING GDF15 AND POLYPEPTIDE REGION CAPABLE OF O-GLYCOSYLATION” (LG CHEM, LTD., priority 2019, published 2023).

Assays:
[1] = Pharmacokinetic test, subcutaneous administration to SD rats (serum ELISA, Human GDF15 Immunoassay); type: in vivo; conditions: 2 mg/kg subcutaneous, serum
Method: For evaluation of pharmacokinetic characteristics when each fusion polypeptide was subcutaneously administered to rats, the fusion polypeptides HT-ID1-GDF15, HT-ID2-GDF15 and HT-ID3-GDF15 were subcutaneously administered into SD rats (Koatech, male, 7-week-old, about 250 g; n=3 each; test group) in an amount of 2 mg/kg, respectively, and about 200 μl of blood was collected through the caudal vein at a predetermined time. The blood collection time was performed before administration, and 1, 2, 4, 8, 24, 48, 72, 96, 168, 240 and 336 hours after administration. As the control group for comparison of pharmacokinetic characteristics, GDF15 (R&D Systems) was subcutaneously administered in an amount of 2 mg/kg by the same method to prepare a GDF15 administration group.
After administering into SD Rats as above, blood collected by time-point was centrifuged to obtain serum, and ELISA was performed using Human GDF15 Immunoassay (SGD150, R&D Systems), and the concentration in the serum was measured depending on the time of each polypeptide.

[2] = Repeated administration: body weight change in DIO mice; type: in vivo, Mouse, C57BL/6J-DIO
Method: The body weight of each mouse was measured on the day of the start of administration of the test substances (before administration), and thereafter, the body weight was measured every day ([…]), and the amount of the administration solution of the test substances was determined on the basis of the most recently measured body weight.
All the experimental results obtained in the present example were expressed as mean±standard error and tested using Prism5 (version 5.01). One-way analysis of variance (ANOVA) was performed on all data, and when significance was observed, Dunnett's test was performed to find out the test groups with a significant difference from the control group (significance level: two-sided 5% and 1%, 0.1%).
Except for the administration dose, animal number and administration cycle, most of the test processes were the same as in Example 2.1.1 above.
The test substances were administered twice a week (Days 0, 4, 7, 11, 14, 18, 21, 25) for a total of 8 times. For comparison, the control group in which the control substance Semaglutide was administered every day was prepared, and the comparison group in which Semaglutide was administered every day was administered once a day daily, and all the administration was progressed from 9 AM.

HT-ID3-GDF15: Fusion polypeptide: His-Tag, TEV cleavage site, three IgD hinges, GS linker, GDF15 (SEQ ID NO: 3)
AUCextp (%) [(AUCinf − AUClast)/AUCinf]*100 [1]: 0.287% | AUClast [1]: 76200 ng·h/mL | Cmax (maximum concentration in blood) [1]: 1110 ng/mL | Tmax (reaching time to maximum concentration in blood) [1]: 24 h | t1/2 (loss half-life) [1]: 26.2 h | AUCinf ([1]; extrapolated to infinity): 76400 ng·h/mL | Body Weight, Mean ([2]; Day 0, 3 nmol/kg twice a week): 100.0 % of initial | Body Weight, Mean ([2]; Day 0, 10 nmol/kg twice a week): 100.0 % of initial | Body Weight, Mean ([2]; Day 0, 30 nmol/kg twice a week): 100.0 % of initial | Body Weight, Mean ([2]; Day 1, 3 nmol/kg twice a week): 98.2 % of initial | Body Weight, Mean ([2]; Day 1, 10 nmol/kg twice a week): 98.5 % of initial | Body Weight, Mean ([2]; Day 1, 30 nmol/kg twice a week): 98.2 % of initial | Body Weight, Mean ([2]; Day 2, 3 nmol/kg twice a week): 96.9 % of initial | Body Weight, Mean ([2]; Day 2, 10 nmol/kg twice a week): 97.3 % of initial | Body Weight, Mean ([2]; Day 2, 30 nmol/kg twice a week): 97.1 % of initial | Body Weight, Mean ([2]; Day 3, 3 nmol/kg twice a week): 95.6 % of initial | Body Weight, Mean ([2]; Day 3, 10 nmol/kg twice a week): 95.7 % of initial | Body Weight, Mean ([2]; Day 3, 30 nmol/kg twice a week): 95.8 % of initial | Body Weight, Mean ([2]; Day 4, 3 nmol/kg twice a week): 94.4 % of initial | Body Weight, Mean ([2]; Day 4, 10 nmol/kg twice a week): 94.6 % of initial | Body Weight, Mean ([2]; Day 4, 30 nmol/kg twice a week): 94.8 % of initial | Body Weight, Mean ([2]; Day 5, 3 nmol/kg twice a week): 92.8 % of initial | Body Weight, Mean ([2]; Day 5, 10 nmol/kg twice a week): 92.8 % of initial | Body Weight, Mean ([2]; Day 5, 30 nmol/kg twice a week): 92.8 % of initial | Body Weight, Mean ([2]; Day 6, 3 nmol/kg twice a week): 91.9 % of initial | Body Weight, Mean ([2]; Day 6, 10 nmol/kg twice a week): 91.5 % of initial | Body Weight, Mean ([2]; Day 6, 30 nmol/kg twice a week): 91.7 % of initial | Body Weight, Mean ([2]; Day 7, 3 nmol/kg twice a week): 91.0 % of initial | Body Weight, Mean ([2]; Day 7, 10 nmol/kg twice a week): 90.7 % of initial | Body Weight, Mean ([2]; Day 7, 30 nmol/kg twice a week): 90.8 % of initial | Body Weight, Mean ([2]; Day 8, 3 nmol/kg twice a week): 90.0 % of initial | Body Weight, Mean ([2]; Day 8, 10 nmol/kg twice a week): 89.8 % of initial | Body Weight, Mean ([2]; Day 8, 30 nmol/kg twice a week): 89.8 % of initial | Body Weight, Mean ([2]; Day 9, 3 nmol/kg twice a week): 89.6 % of initial | Body Weight, Mean ([2]; Day 9, 10 nmol/kg twice a week): 89.3 % of initial | Body Weight, Mean ([2]; Day 9, 30 nmol/kg twice a week): 89.8 % of initial | Body Weight, Mean ([2]; Day 10, 3 nmol/kg twice a week): 89.1 % of initial | Body Weight, Mean ([2]; Day 10, 10 nmol/kg twice a week): 88.7 % of initial | Body Weight, Mean ([2]; Day 10, 30 nmol/kg twice a week): 89.7 % of initial | Body Weight, Mean ([2]; Day 11, 3 nmol/kg twice a week): 91.5 % of initial | Body Weight, Mean ([2]; Day 11, 10 nmol/kg twice a week): 90.9 % of initial | Body Weight, Mean ([2]; Day 11, 30 nmol/kg twice a week): 92.0 % of initial | Body Weight, Mean ([2]; Day 12, 3 nmol/kg twice a week): 91.5 % of initial | Body Weight, Mean ([2]; Day 12, 10 nmol/kg twice a week): 89.8 % of initial | Body Weight, Mean ([2]; Day 12, 30 nmol/kg twice a week): 90.0 % of initial | Body Weight, Mean ([2]; Day 13, 3 nmol/kg twice a week): 92.3 % of initial | Body Weight, Mean ([2]; Day 13, 10 nmol/kg twice a week): 90.1 % of initial | Body Weight, Mean ([2]; Day 13, 30 nmol/kg twice a week): 90.4 % of initial | Body Weight, Mean ([2]; Day 14, 3 nmol/kg twice a week): 92.5 % of initial | Body Weight, Mean ([2]; Day 14, 10 nmol/kg twice a week): 91.0 % of initial | Body Weight, Mean ([2]; Day 14, 30 nmol/kg twice a week): 90.9 % of initial | Body Weight, Mean ([2]; Day 15, 3 nmol/kg twice a week): 92.6 % of initial | Body Weight, Mean ([2]; Day 15, 10 nmol/kg twice a week): 90.0 % of initial | Body Weight, Mean ([2]; Day 15, 30 nmol/kg twice a week): 89.3 % of initial | Body Weight, Mean ([2]; Day 16, 3 nmol/kg twice a week): 93.3 % of initial | Body Weight, Mean ([2]; Day 16, 10 nmol/kg twice a week): 91.2 % of initial | Body Weight, Mean ([2]; Day 16, 30 nmol/kg twice a week): 89.6 % of initial | Body Weight, Mean ([2]; Day 17, 3 nmol/kg twice a week): 94.0 % of initial | Body Weight, Mean ([2]; Day 17, 10 nmol/kg twice a week): 91.8 % of initial | Body Weight, Mean ([2]; Day 17, 30 nmol/kg twice a week): 90.4 % of initial | Body Weight, Mean ([2]; Day 18, 3 nmol/kg twice a week): 94.4 % of initial | Body Weight, Mean ([2]; Day 18, 10 nmol/kg twice a week): 92.3 % of initial | Body Weight, Mean ([2]; Day 18, 30 nmol/kg twice a week): 91.0 % of initial | Body Weight, Mean ([2]; Day 19, 3 nmol/kg twice a week): 95.0 % of initial | Body Weight, Mean ([2]; Day 19, 10 nmol/kg twice a week): 91.9 % of initial | Body Weight, Mean ([2]; Day 19, 30 nmol/kg twice a week): 90.0 % of initial | Body Weight, Mean ([2]; Day 20, 3 nmol/kg twice a week): 95.2 % of initial | Body Weight, Mean ([2]; Day 20, 10 nmol/kg twice a week): 91.2 % of initial | Body Weight, Mean ([2]; Day 20, 30 nmol/kg twice a week): 89.6 % of initial | Body Weight, Mean ([2]; Day 21, 3 nmol/kg twice a week): 95.8 % of initial | Body Weight, Mean ([2]; Day 21, 10 nmol/kg twice a week): 92.1 % of initial | Body Weight, Mean ([2]; Day 21, 30 nmol/kg twice a week): 90.4 % of initial | Body Weight, Mean ([2]; Day 22, 3 nmol/kg twice a week): 96.4 % of initial | Body Weight, Mean ([2]; Day 22, 10 nmol/kg twice a week): 92.1 % of initial | Body Weight, Mean ([2]; Day 22, 30 nmol/kg twice a week): 90.0 % of initial | Body Weight, Mean ([2]; Day 23, 3 nmol/kg twice a week): 97.1 % of initial | Body Weight, Mean ([2]; Day 23, 10 nmol/kg twice a week): 92.5 % of initial | Body Weight, Mean ([2]; Day 23, 30 nmol/kg twice a week): 90.0 % of initial | Body Weight, Mean ([2]; Day 24, 3 nmol/kg twice a week): 97.4 % of initial | Body Weight, Mean ([2]; Day 24, 10 nmol/kg twice a week): 93.2 % of initial | Body Weight, Mean ([2]; Day 24, 30 nmol/kg twice a week): 91.0 % of initial | Body Weight, Mean ([2]; Day 25, 3 nmol/kg twice a week): 97.6 % of initial | Body Weight, Mean ([2]; Day 25, 10 nmol/kg twice a week): 93.7 % of initial | Body Weight, Mean ([2]; Day 25, 30 nmol/kg twice a week): 91.5 % of initial | Body Weight, Mean ([2]; Day 26, 3 nmol/kg twice a week): 98.5 % of initial | Body Weight, Mean ([2]; Day 26, 10 nmol/kg twice a week): 94.2 % of initial | Body Weight, Mean ([2]; Day 26, 30 nmol/kg twice a week): 91.5 % of initial | Body Weight, Mean ([2]; Day 27, 3 nmol/kg twice a week): 98.0 % of initial | Body Weight, Mean ([2]; Day 27, 10 nmol/kg twice a week): 94.4 % of initial | Body Weight, Mean ([2]; Day 27, 30 nmol/kg twice a week): 91.2 % of initial | Body Weight, Mean ([2]; Day 28, 3 nmol/kg twice a week): 98.6 % of initial | Body Weight, Mean ([2]; Day 28, 10 nmol/kg twice a week): 94.1 % of initial | Body Weight, Mean ([2]; Day 28, 30 nmol/kg twice a week): 91.4 % of initial
